US6441021B1, “Sulfonated amino acid derivatives and metalloproteinase inhibitors containing the same” (Shionogi & Co., Ltd., priority 1996, dated 2002)

The molecules below were run against T1, MMP-9 (92 kDa, gelatinase B; type IV collagenase) (Homo sapiens, UniProt P14780) (assay: Assay of type IV collagenase inhibitors: activated MMP-9 with type IV collagenase activity kit substrate, fluorescent intensity). Details: not given.
T1 construct: endogenous in cells; enzyme purified from the conditioned medium
Type: biochemical
Experimental: (1) Isolation and Purification of MMP-9 (92 kDa, Gelatinase B)
Type IV collagenase (MMP-9) was purified according to the methods descrived in the following literature.
Subsequently, activated MMP-9 was obtained by treating the pro-MMP-9 with trypsin.
(2) Assay Methods of Type IV Collagenase Inhibitors
Collagenase assay was performed using the activated MMP-9 described above and the substrate supplied in the type IV collagenase activity kit (YAGAI, inc.), according to the manufacturer's protocol. The following 4 assays are performed per compound (inhibitor).
(A) substrate (type IV collagenase), enzyme (MMP-9), inhibitor
(B) substrate (type IV collagenase), inhibitor
(C) substrate (type IV collagenase), enzyme (MMP-9)
(D) substrate (type IV collagenase)
According to the manufacturer's protocol, fluorescent intensity was measured and percent inhibition was determined by the following equation.
Inhibition (%)={1−(A−B)/(C−D)}×100

T1 sequence (P14780 107-707 limits assumed): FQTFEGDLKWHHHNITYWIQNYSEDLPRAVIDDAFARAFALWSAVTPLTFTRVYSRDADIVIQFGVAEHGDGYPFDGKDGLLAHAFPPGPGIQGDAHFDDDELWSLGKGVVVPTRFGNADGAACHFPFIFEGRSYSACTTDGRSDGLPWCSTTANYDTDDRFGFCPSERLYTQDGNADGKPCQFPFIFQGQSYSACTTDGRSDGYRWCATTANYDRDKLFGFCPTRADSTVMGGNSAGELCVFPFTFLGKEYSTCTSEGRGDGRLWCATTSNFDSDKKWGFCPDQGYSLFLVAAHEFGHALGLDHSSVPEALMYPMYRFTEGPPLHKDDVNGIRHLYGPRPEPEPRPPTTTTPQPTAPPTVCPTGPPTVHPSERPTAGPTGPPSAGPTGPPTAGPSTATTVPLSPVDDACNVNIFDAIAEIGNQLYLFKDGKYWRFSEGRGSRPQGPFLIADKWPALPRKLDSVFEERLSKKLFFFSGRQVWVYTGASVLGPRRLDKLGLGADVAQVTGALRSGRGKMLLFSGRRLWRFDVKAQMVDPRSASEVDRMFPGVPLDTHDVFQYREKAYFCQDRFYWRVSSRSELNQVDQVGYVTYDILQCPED

IC50 [nM] | Compound
153 | COc1ccc(-n2nnc(-c3ccc(S(=O)(=O)N[C@H](Cc4ccccc4)C(=O)O)cc3)n2)cc1 [Example 234]
265 | N#Cc1ccc(-n2nnc(-c3ccc(S(=O)(=O)N[C@H](Cc4ccccc4)C(=O)O)cc3)n2)cc1 [Example 235]
1100 | CC(C)[C@@H](NS(=O)(=O)c1ccc(NC(=O)c2ccc(-c3ccccc3)cc2)cc1)C(=O)O [Example 195]
53.9 | CN(C)c1ccc(C(=O)Nc2ccc(S(=O)(=O)N[C@H](Cc3c[nH]c4ccccc34)C(=O)O)cc2)cc1 [Example 181]
10.8 | CSc1ccc(-n2nnc(-c3ccc(S(=O)(=O)N[C@H](Cc4ccccc4)C(=O)O)cc3)n2)cc1 [Example 246]
744 | O=C(O)C(Cc1cccc2ccccc12)NS(=O)(=O)c1ccc(-c2nnn(-c3ccccc3)n2)cc1 (centres unmarked) [Example 218]
52.9 | CC(C)[C@@H](NS(=O)(=O)c1ccc(-c2nnn(-c3ccc(F)cc3)n2)cc1)C(=O)O [Example 243]
529 | CC(C)[C@H](C(=O)O)N(CCCCN)S(=O)(=O)c1ccc(Oc2ccccc2)cc1 [Example 255]
13.1 | Cc1ccc(-n2nnc(-c3ccc(S(=O)(=O)N[C@H](Cc4c[nH]c5ccccc45)C(=O)O)cc3)n2)cc1 [Example 241]
42.2 | O=C(Nc1ccc(S(=O)(=O)N[C@H](Cc2c[nH]c3ccccc23)C(=O)O)cc1)c1ccc(F)cc1 [Example 185]
144 | O=C(O)[C@@H](Cc1ccccc1)NS(=O)(=O)c1ccc(-c2nnn(-c3ccc(Cl)cc3)n2)cc1 [Example 232]
24 | O=C(O)[C@@H](Cc1c[nH]c2ccccc12)NS(=O)(=O)c1ccc(-c2nnn(-c3ccccc3)n2)cc1 [Example 210]
197 | O=C(O)[C@@H](Cc1ccccc1)NS(=O)(=O)c1ccc(-c2nnn(-c3ccc(F)cc3)n2)cc1 [Example 231]
3.25 | CSc1ccc(C(=O)Nc2ccc(S(=O)(=O)N[C@H](Cc3c[nH]c4ccccc34)C(=O)O)cc2)cc1 [Example 184]
57.3 | Cc1ccc(C(=O)Nc2ccc(S(=O)(=O)N[C@@H](C(=O)O)C(C)C)cc2)cc1 [Example 196]
78 | CCC(C)[C@@H](NS(=O)(=O)c1ccc(-c2nnn(-c3ccc(OC)cc3)n2)cc1)C(=O)O (some centres unmarked) [Example 222]
2060 | CC(C)[C@@H](NS(=O)(=O)c1ccc(NC(=O)c2ccccc2)cc1)C(=O)O [Example 199]
45 | O=C(Nc1ccc(S(=O)(=O)N[C@H](Cc2c[nH]c3ccccc23)C(=O)O)cc1)c1ccc([N+](=O)[O-])cc1 [Example 180]
25.2 | COc1ccc(C(=O)Nc2ccc(S(=O)(=O)N[C@H](Cc3c[nH]c4ccccc34)C(=O)O)cc2)cc1 [Example 178]
3.5 | CSc1ccc(-n2nnc(-c3ccc(S(=O)(=O)N[C@H](Cc4c[nH]c5ccccc45)C(=O)O)cc3)n2)cc1 [Example 247]
23.9 | Cc1ccc(-n2nnc(-c3ccc(S(=O)(=O)N[C@@H](C(=O)O)C(C)C)cc3)n2)cc1 [Example 242]
12.2 | CC(C)[C@@H](NS(=O)(=O)c1ccc(-c2nnn(-c3ccc(Br)cc3)n2)cc1)C(=O)O [Example 225]
908 | O=C(O)[C@@H](Cc1ccccc1)N(Cc1ccccc1)S(=O)(=O)c1ccc(-c2nnn(-c3ccccc3)n2)cc1 [Example 258]
240 | CC(C)[C@H](C(=O)O)N(C)S(=O)(=O)c1ccc(Oc2ccccc2)cc1 [Example 252]
281 | O=C(O)[C@@H](Cc1ccccc1)NS(=O)(=O)c1ccc(-c2nnn(-c3ccc([N+](=O)[O-])cc3)n2)cc1 [Example 230]
252 | CC(C)[C@@H](NS(=O)(=O)c1ccc(NC(=O)c2ccc([N+](=O)[O-])cc2)cc1)C(=O)O [Example 201]

Compound | IC50 [nM]
COc1ccc(C(=O)Nc2ccc(S(=O)(=O)N[C@@H](C(=O)O)C(C)C)cc2)cc1 [Example 200] | 173

Same assay, conditions: activated MMP-9, type IV collagenase activity kit substrate, fluorescent intensity; concentration at which percent inhibition reaches 50%

IC50 [nM] | Compound
75 | CSc1ccc(-c2ccc(S(=O)(=O)N[C@H](Cc3ccccc3)C(=O)O)cc2)cc1 [Example 1a-1-54]
200 | O=C(NO)[C@@H](Cc1ccccc1)NS(=O)(=O)c1ccc(O)cc1 [Example 1b-1-24]
500 | O=C(O)C(Cc1c[nH]c2ccc(F)cc12)NS(=O)(=O)c1ccc(-c2ccccc2)cc1 (racemic) [Example 1a-1-18]
40 | O=C(NO)C(Cc1cscn1)NS(=O)(=O)c1ccc(-c2ccccc2)cc1 (racemic) [Example 1b-1-2]
1700 | CN(C)c1cccc2c(S(=O)(=O)N[C@H](Cc3ccccc3)C(=O)NO)cccc12 [Example 1b-1-11]
247 | O=C(O)[C@@H](Cc1c[nH]c2ccccc12)NS(=O)(=O)c1ccc(Oc2ccccc2)cc1 [Example 1a-1-61]
625 | CC(C)[C@@H](NS(=O)(=O)c1ccc(-c2ccccc2)cc1)C(=O)O [Example 1a-1-43]
5 | O=C(NO)[C@@H](Cc1c[nH]c2ccccc12)NS(=O)(=O)c1ccc(-c2ccccc2)cc1 [Example 1b-1-33]
1910 | CC(C)[C@@H](NS(=O)(=O)c1ccc(-c2ccc(C(C)(C)C)cc2)cc1)C(=O)O [Example 1a-1-44]
1.2 | O=C(NO)[C@@H](Cc1ccccc1)NS(=O)(=O)c1ccc(Oc2ccccc2)cc1 [Example 1b-1-60]
2100 | O=C(NO)[C@@H](Cc1ccccc1)NS(=O)(=O)c1ccc(C(F)(F)F)cc1 [Example 1b-1-10]
553 | COc1ccc(-c2ccc(S(=O)(=O)N[C@H](Cc3ccccc3)C(=O)O)cc2)cc1 [Example 1a-1-50]
312 | O=C(O)[C@@H](Cc1c[nH]c2ccccc12)NS(=O)(=O)c1ccc(-c2ccc(F)cc2)cc1 [Example 1a-1-41]
3000 | O=C(NO)[C@@H](Cc1ccccc1)NS(=O)(=O)c1ccc([N+](=O)[O-])cc1 [Example 1b-1-27]
1150 | CC(C)[C@@H](NS(=O)(=O)c1ccc(-c2ccc(F)cc2)cc1)C(=O)O [Example 1a-1-48]
240 | O=C(O)[C@@H](Cc1ccccc1)NS(=O)(=O)c1ccc(-c2ccccc2)cc1 [Example 1a-1-1]
291 | Cc1ccc2[nH]cc(CC(NS(=O)(=O)c3ccc(Oc4ccccc4)cc3)C(=O)O)c2c1 (racemic) [Example 1a-1-65]
40 | CC(C)[C@@H](NS(=O)(=O)c1ccc(-c2ccc(-c3ccccc3)cc2)cc1)C(=O)O [Example 1a-1-45]
30 | O=C(NO)[C@@H](Cc1ccccc1)NS(=O)(=O)c1ccc(-c2ccccc2)cc1 [Example 1b-1-1]
3500 | O=C(NO)[C@H](Cc1c[nH]c2ccccc12)NS(=O)(=O)c1ccc(Oc2ccccc2)cc1 [Example 1b-1-62]
1120 | CC(C)[C@@H](NS(=O)(=O)c1ccc(-c2ccc(C(F)(F)F)cc2)cc1)C(=O)O [Example 1a-1-46]
20.3 | Cc1ccc2[nH]cc(CC(NS(=O)(=O)c3ccc(-c4ccccc4)cc3)C(=O)NO)c2c1 (racemic) [Example 1b-1-17]
1310 | O=C(O)[C@@H](Cc1ccccc1)NS(=O)(=O)c1ccc(Oc2ccccc2)cc1 [Example 1a-1-60]

Same assay, conditions: inhibition of type IV collagenase (MMP-9), concentration at which percent inhibition reaches 50%

IC50 [nM] | Compound
203 | CC(C)[C@@H](NS(=O)(=O)c1ccc(C#Cc2ccc(F)cc2)cc1)C(=O)O [Example 1a-2-19]
57.7 | Nc1ccc(C#Cc2ccc(S(=O)(=O)N[C@H](Cc3c[nH]c4ccccc34)C(=O)O)cc2)cc1 [Example 1a-2-9]
92.2 | Cc1ccc(C#Cc2ccc(S(=O)(=O)N[C@H](Cc3ccccc3)C(=O)O)s2)cc1 [Example 1a-2-37]
10.8 | Cc1ccc(-c2ccc(S(=O)(=O)N[C@H](Cc3c[nH]c4ccccc34)C(=O)O)s2)cc1 [Example 1a-3-3]
3410 | COc1ccc(C#Cc2ccc(S(=O)(=O)N[C@@H](C(=O)O)C(C)(C)C)cc2)cc1 [Example 1a-2-20]
47.5 | C#Cc1ccc(C#Cc2ccc(S(=O)(=O)N[C@H](Cc3c[nH]c4ccccc34)C(=O)O)cc2)cc1 [Example 1a-2-11]
230 | Cc1ccc(-c2ccc(S(=O)(=O)N[C@@H](C(=O)O)C(C)C)s2)cc1 [Example 1a-3-7]
237 | O=C(O)[C@@H](Cc1c[nH]c2ccccc12)NS(=O)(=O)c1ccc(C#Cc2ccccc2)cc1 [Example 1a-2-2]
222 | O=C(O)[C@@H](Cc1ccccc1)NS(=O)(=O)c1ccc(C#Cc2ccc(F)cc2)s1 [Example 1a-2-38]
1770 | O=C(O)[C@@H](Cc1c[nH]c2ccccc12)NS(=O)(=O)c1ccc(-c2nc3ccccc3s2)cc1 [Example 1a-1-83]
8.3 | COc1ccc(-c2ccc(S(=O)(=O)N[C@H](Cc3ccccc3)C(=O)O)s2)cc1 [1a-3-10]
5.9 | CSc1ccc(-n2nnc(-c3ccc(S(=O)(=O)N[C@@H](C(=O)O)C(C)C)cc3)n2)cc1 [Example 245]
2.7 | O=C(Nc1ccc(S(=O)(=O)N[C@H](Cc2c[nH]c3ccccc23)C(=O)O)cc1)c1ccc(Br)cc1 [Example 183]
86.4 | Cc1ccc(-n2nnc(-c3ccc(S(=O)(=O)N[C@H](Cc4ccccc4)C(=O)O)cc3)n2)cc1 [Example 233]
13 | O=C(NO)[C@@H](Cc1ccccc1)NS(=O)(=O)c1ccc(N=Nc2ccccc2)cc1 [Example 1b-1-85]
1280 | CC(C)[C@@H](NS(=O)(=O)c1ccc(-c2ccc(F)cc2)s1)C(=O)O [Example 1a-3-8]
3740 | CCC(C)[C@@H](NS(=O)(=O)c1ccc(C#Cc2ccc(OC)cc2)cc1)C(=O)O (some centres unmarked) [Example 1a-2-21]
350 | CN(C)c1ccc(N=Nc2ccc(S(=O)(=O)N[C@H](Cc3ccccc3)C(=O)O)cc2)cc1 [Example 1a-1-86]
